Data from US20100311107A1, “Ultra-High Throughput Screening of Natural Products” (priority 2004, published 2010).
Like-named read-outs stand apart in the source and are kept apart here.

Columns and labels:
Format in all cases: cell-based, Escherichia coli
[1] = test system: E. coli screening strain CM242; set-up: unit not given here; conditions: second Table 12, MHB medium
Protocol: (§1) The level of drug resistance of these screening strains (both intermediates and finals) was evaluated by standard MIC assay in MHB liquid medium and the result of Strain CM242 is summarized in Table 12.

[2] = test system: E. coli screening strain DR1234; set-up: unit not given here
Protocol: (§2) The screening strain, DR1234, was established after all desired drug-resistant genes listed in Table 5 had been delivered into the parent E. coli strain, MG1655, by methods described above. Its level of drug resistance was analyzed by the standard minimum inhibitory concentration (MIC) assay in MHB liquid medium (Chantot, et al., 1986, “Antibacterial activity of roxithromycin: a laboratory evaluation,” J. Antibiot, 39(5):660-8) and the result was summarized in Table 7.

[3] = test system: E. coli screening strain CM400; set-up: unit not given here; conditions: Table 13, MHB medium
Protocol: (§3) The level of drug resistance of screening strains CM400 and CM435 was evaluated by standard MIC assay in MHB liquid medium and the results are summarized in Table 13. According to the MIC results, CM435 is hypersensitive to Bleomycin, Daunorucibin, Coumermycin A1 and Erythromycin. Screening strain CM435 and others, which are hypersensitive to certain types of antimicrobial agents, are advantageous in detecting bioactive compounds with low concentration in the screening system.

[4] = test system: E. coli screening strain DR1212; set-up: unit not given here
Protocol: (§4) The level of drug-resistance of screening strain DR1212 was analyzed by standard MIC assay in MHB liquid medium and the result was summarized in Table 11. Similar to screening strains, DR1234 and CM166, DR1212 is also resistant to drugs whose resistant genes have been introduced.

[5] = test system: E. coli screening strain CM435; set-up: Minimal inhibitory concentrations (MIC90) CM435: unit not given here; conditions: for Minimal inhibitory concentrations (MIC90) CM435: Table 13, MHB medium; for sensitivity of CM435 according to the MIC results: MHB liquid medium
[6] = test system: E. coli MG1655; set-up: unit not given here
Protocol: as §2
(§5) The level of drug resistance of CM166 was estimated by MIC assay carried out in MHB liquid medium and the results were summarized in Table 9. CM166 is resistant to antibacterial agents whose resistant genes have been incorporated into the strain, but not to other antibacterial drugs whose resistant genes are not incorporated.
as §4, §1, §3

[7] = test system: E. coli screening strain CM166; set-up: unit not given here; conditions: Table 9, MHB medium
From the text: as §5

| Compound | Minimal inhibitory concentrations (MIC90) CM242 [1] | Minimal inhibitory concentrations (MIC90) DR1234 ([2]; Table 7, MHB medium) | Minimal inhibitory concentrations (MIC90) CM400 [3] | Minimal inhibitory concentrations (MIC90) DR1212 ([4]; Table 11, MHB medium) | Minimal inhibitory concentrations (MIC90) CM435 [5] | Minimal inhibitory concentrations (MIC90) MG1655 ([6]; Table 7, MHB medium) | Minimal inhibitory concentrations (MIC90) MG1655 ([6]; Table 9, MHB medium) | Minimal inhibitory concentrations (MIC90) MG1655 ([6]; Table 11, MHB medium) | Minimal inhibitory concentrations (MIC90) MG1655 ([6]; Table 13, MHB medium) | Minimal inhibitory concentrations (MIC90) MG1655 ([6]; second Table 12, MHB medium) | Minimal inhibitory concentrations (MIC90) CM166 [7] | sensitivity of CM435 according to the MIC results [5] | Minimal inhibitory concentrations (MIC90) DR1234 [2] | Minimal inhibitory concentrations (MIC90) DR1212 [4] |
| --- | --- | --- | --- | --- | --- | --- | --- | --- | --- | --- | --- | --- | --- | --- |
| CCN[C@@H]1C[C@H](N)[C@@H](O[C@H]2OC(CN)=CC[C@H]2N)[C@H](O)[C@H]1O[C@H]1OC[C@](C)(O)[C@H](NC)[C@H]1O [Netilmycin] | 200 | 200 | >64 | 400 | 64 | 1.6 | 1.6 | 1.6 | 0.5 | 1.6 | 400 |  |  |  |
| CN[C@@H]1[C@@H](O[C@H]2O[C@H](CO)[C@@H](N)[C@H](O)[C@H]2O)OC2C[C@@H](N)[C@@H](O[C@H]3[C@H](O)[C@@H](O)[C@H](N)C[C@@H]3N)OC2[C@@H]1O (stereo partly shown) [Apramycin] | 400 | 400 | 64 | 1.6 | >64 | 3.2-6.3 | 3.2-6.3 | 3.2-6.3 | 4 | 3.2-6.3 | 200 |  |  |  |
| CO[C@H]1[C@H](OC(=O)c2ccc(C)[nH]2)[C@H](O)[C@@H](Oc2ccc3c(O)c(NC(=O)c4c[nH]c(C(=O)Nc5c(O)c6ccc(O[C@H]7OC(C)(C)[C@@H](OC)[C@H](OC(=O)c8ccc(C)[nH]8)[C@@H]7O)c(C)c6oc5=O)c4C)c(=O)oc3c2C)OC1(C)C [Coumermycin A1] | 6.3 | 3.2 | 64 | 3.2 | 4 | 12.5 | 12.5 | 12.5 | >64 | 12.5 | 6.3 | hypersensitive |  |  |
| CC1(C)S[C@@H]2[C@H](NC(=O)[C@H](N)c3ccccc3)C(=O)N2[C@H]1C(=O)O [Ampicillin] | >400 | >400 | >64 | >400 | >64 | 1.6-3.2 | 1.6-3.2 | 1.6-3.2 | 8 | 1.6-3.2 | >400 |  |  |  |
| Neomycin | 50 | 100 | 16 | 25 | 8 | 0.8 | 0.8 | 0.8 | 2 | 0.8 | 25 |  |  |  |
| CC[C@H]1OC(=O)[C@H](C)[C@@H](O[C@H]2C[C@@](C)(OC)[C@@H](O)[C@H](C)O2)[C@H](C)[C@@H](O[C@@H]2O[C@H](C)C[C@H](N(C)C)[C@H]2O)[C@](C)(O)C[C@@H](C)C(=O)[C@H](C)[C@@H](O)[C@]1(C)O [Erythromycin] | 25 | 100 | 64 | 50 | 4 | 25 | 25 | 25 | >64 | 25 | 100 | hypersensitive |  |  |
| CN(C)[C@@H]1C(O)=C(C(N)=O)C(=O)[C@@]2(O)C(O)=C3C(=O)c4c(O)cccc4[C@@](C)(O)[C@H]3C[C@@H]12 [Tetracycline] | >400 |  | >64 |  | 64 | 0.4-3.2 | 0.4-3.2 | 0.4-3.2 | 2 | 0.4-3.2 | 100 |  | 100 | 100 |
| O=C(N[C@H](CO)[C@H](O)c1ccc([N+](=O)[O-])cc1)C(Cl)Cl [Chloramphenicol] | 100 | 100 | >64 | 400 | >64 | 3.2 | 3.2 | 3.2 | 8 | 3.2 | 100 |  |  |  |
| Actinomycin C | 200 | 100 | >256 | 25.0 | >256 | 50 | 50 | 50 | 256 | 50 | 50 |  |  |  |
| Gentamicin | 100 | 400 | >64 | 200 | >64 | 0.8 | 0.8 | 0.8 | 1 | 0.8 | >400 |  |  |  |
